ChEMBL document CHEMBL1201862, “PubChem BioAssay data set” (2004)
Where a name gives a salt, the structure may show the parent alone. Active and inactive are the calls of the source.

Columns and labels:
[1] = blockers of HIV-1 envelope-mediated cell-cell fusion – cherry-pick, dose response (AID 652057); assay type: functional, cell-based
[2] = blockers of HIV-1 ZM109 envelope-driven cell-cell fusion – HeLa effector, CEM target cells, luciferase, cherry-pick, dose response (AID 652058); assay type: functional, cell-based;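 also: luciferase signal from HIV-1 Env mediated cell-cell fusion of effector and target cells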
[3] = off-target signal loss in HeLa-CEM21 co-culture – HeLa F-luc CTL cells, cherry-picked, counter-screen for HIV-1 Env fusion inhibitor project, dose response (AID 652040); assay type: functional, cell-based;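 also: potency for signal decrease marking cytotoxic or nonspecific inhibition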
[4] = HIV-1 AD8 envelope cell-cell fusion blockers – cherry-pick, dose response (AID 652062); assay type: functional, cell-based;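 also: luciferase signal from cell-cell fusion driven by HIV-1 clade B AD8 Env; potency is for inhibitors of fusion seen as a drop in luminescence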
[5] = target: T1, High affinity choline transporter 1 (Homo sapiens, UniProt Q9GZV3); test: human choline transporter blockers, potency – cell-based, 5-point CRC, membrane potential dye, dose response (AID 504840); assay type: functional
T1 sequence (Q9GZV3 whole entry): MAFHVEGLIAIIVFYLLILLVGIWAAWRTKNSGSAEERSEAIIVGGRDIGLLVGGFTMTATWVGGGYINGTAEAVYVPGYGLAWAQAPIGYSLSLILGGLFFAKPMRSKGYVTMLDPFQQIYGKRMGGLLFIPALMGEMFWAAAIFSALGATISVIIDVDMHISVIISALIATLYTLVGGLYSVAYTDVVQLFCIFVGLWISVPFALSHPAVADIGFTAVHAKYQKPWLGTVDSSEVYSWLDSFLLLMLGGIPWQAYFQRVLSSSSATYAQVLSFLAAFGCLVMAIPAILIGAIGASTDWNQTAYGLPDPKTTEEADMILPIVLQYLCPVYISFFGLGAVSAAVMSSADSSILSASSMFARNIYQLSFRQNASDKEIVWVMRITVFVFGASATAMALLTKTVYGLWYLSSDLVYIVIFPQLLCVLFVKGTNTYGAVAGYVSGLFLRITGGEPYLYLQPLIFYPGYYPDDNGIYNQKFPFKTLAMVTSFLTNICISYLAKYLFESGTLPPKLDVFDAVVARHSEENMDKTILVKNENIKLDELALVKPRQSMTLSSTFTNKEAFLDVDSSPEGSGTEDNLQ

Streptokinase A = target: T2, Streptokinase A (Streptococcus pyogenes serotype M1, UniProt P10520); test: viability-normalized secreted streptokinase activity reduction – plasminogen activation absorbance, OD405, dose response (AID 1914); assay type: functional, Streptococcus pyogenes M1 GAS;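 also: secreted streptokinase activity via plasminogen activation per viability signal from cell pellet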
T2 sequence (P10520 whole entry): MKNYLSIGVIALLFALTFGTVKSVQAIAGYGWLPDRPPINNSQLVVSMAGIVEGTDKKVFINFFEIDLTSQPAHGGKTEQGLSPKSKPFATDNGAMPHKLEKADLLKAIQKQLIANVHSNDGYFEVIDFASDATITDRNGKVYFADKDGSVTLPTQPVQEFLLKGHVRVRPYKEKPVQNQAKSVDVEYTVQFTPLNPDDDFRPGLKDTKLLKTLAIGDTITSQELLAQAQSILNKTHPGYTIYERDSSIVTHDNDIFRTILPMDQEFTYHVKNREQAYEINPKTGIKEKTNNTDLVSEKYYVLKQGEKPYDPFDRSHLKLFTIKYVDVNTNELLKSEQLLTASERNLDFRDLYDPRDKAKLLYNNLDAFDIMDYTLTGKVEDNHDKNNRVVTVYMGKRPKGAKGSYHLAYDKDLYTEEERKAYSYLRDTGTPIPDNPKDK

Prothrombin = Prothrombin (Homo sapiens, UniProt P00734); test: Thrombin 1536 HTS Dose Response Confirmation. [Related pubchem assays: 1046 (Thrombin 1536 HTS; hits were confirmed in this assay)]; assay type: functional
Streptococcus = test: GAS UMAA2166 growth inhibition – luminescence, BacTiterGlo, counter-screen for streptokinase expression inhibitor project, dose response (AID 1915); assay type: functional, organism-based;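 also: potency for reduction of bacterial viability or growth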
[6] = target: Peroxisome proliferator-activated receptor gamma/Nuclear receptor coactivator 2 (Homo sapiens, UniProt P37231); assay type: functional;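 also: agonist potency for raising coactivator recruitment to the receptor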
[7] = target: Peroxisome proliferator-activated receptor gamma/Nuclear receptor coactivator 1 (Homo sapiens, UniProt P37231); assay type: functional;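 also: agonist potency as compounds enhance coactivator SRC-1 recruitment to PPARgamma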
[8] = target: Peroxisome proliferator-activated receptor gamma/Nuclear receptor coactivator 3 (Homo sapiens, UniProt P37231); assay type: functional;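 also: agonist potency for raising coactivator recruitment to the receptor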
Cytochrome P450 3A4 = Cytochrome P450 3A4 (Homo sapiens, UniProt P08684);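 also: CYP3A4 tested as one member of a cytochrome P450 panel screen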
Cytochrome P450 2C9 = Cytochrome P450 2C9 (Homo sapiens, UniProt P11712)
[9] = target: T3, Ubiquitin-conjugating enzyme E2 N (Homo sapiens, UniProt P61088); assay type: functional;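 also: Dose-response confirmation in a TR-FRET assay detecting UBC13-driven polyubiquitin chain formation, inhibition measured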
T3 sequence (P61088 whole entry): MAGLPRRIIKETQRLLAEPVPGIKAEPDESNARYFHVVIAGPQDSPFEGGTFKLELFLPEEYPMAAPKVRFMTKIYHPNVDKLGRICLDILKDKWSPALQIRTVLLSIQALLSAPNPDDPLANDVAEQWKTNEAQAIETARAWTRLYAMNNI

Nonstructural protein 1 = Nonstructural protein 1 (Influenza A virus, UniProt Q194T2); assay type: functional, Influenza A virus (A/California/07/2009(H1N1))
Cytochrome P450 2D6 = Cytochrome P450 2D6 (Homo sapiens, UniProt P10635);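 also: CYP2D6 member of a cytochrome P450 panel assay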
[10] = blockers of bursicon-stimulated LGR2 cAMP reporter – cell-based, HEK293, CRE-luciferase reporter, cherry pick, set 2, dose response (AID 743343); assay type: functional;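 also: transfected cells were stimulated with diluted bursicon conditioned medium after compound addition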
[11] = blockade of melanocortin 4 receptor signaling – cell-based, plate reader, cherry pick, counter-screen for LGR2 antagonist project, dose response (AID 743444); assay type: functional;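 also: transfected HEK 293 cells stimulated with alpha-MSH peptide; potency of inhibitors of the alpha-MSH evoked signal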
[12] = microbe, parasite or virus in culture; assay type: functional; settings: Mycobacterium tuberculosis
[13] = Luminescence Cell-Based Dose Retest to Confirm Inhibitors of Cancer Stem Cells. [Related pubchem assays (depositor defined):AID2717, AID2721]; assay type: functional; settings: Homo sapiens
[14] = target: Heat shock protein HSP 90-alpha (Homo sapiens, UniProt P07900); assay type: functional, organism-based
Cytochrome P450 1A2 = target: T4, Cytochrome P450 1A2 (Homo sapiens, UniProt P05177);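 also: PubChem cytochrome P450 panel assay, CYP1A2 panel member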
T4 sequence (P05177 whole entry): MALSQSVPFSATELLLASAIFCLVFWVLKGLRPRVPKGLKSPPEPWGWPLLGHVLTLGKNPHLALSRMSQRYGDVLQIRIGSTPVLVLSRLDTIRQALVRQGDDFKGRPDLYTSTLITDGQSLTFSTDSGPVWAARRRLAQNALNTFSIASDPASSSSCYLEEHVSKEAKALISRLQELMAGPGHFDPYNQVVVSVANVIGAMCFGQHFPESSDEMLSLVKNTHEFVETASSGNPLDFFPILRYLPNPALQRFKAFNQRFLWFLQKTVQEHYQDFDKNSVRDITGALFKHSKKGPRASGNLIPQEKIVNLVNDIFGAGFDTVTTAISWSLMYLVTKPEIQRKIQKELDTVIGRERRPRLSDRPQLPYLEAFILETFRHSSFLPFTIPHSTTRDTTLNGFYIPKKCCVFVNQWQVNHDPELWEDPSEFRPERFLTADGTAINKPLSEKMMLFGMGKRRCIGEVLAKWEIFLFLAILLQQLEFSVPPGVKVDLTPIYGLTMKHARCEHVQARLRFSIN

Large T antigen = Large T antigen (Simian virus 40, UniProt P03070); assay type: functional, Betapolyomavirus macacae;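 also: Confirmatory-stage PubChem screen for compounds that inhibit SV40 T antigen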
[15] = target: T5, Corticotropin-releasing factor receptor 2/Corticotropin-releasing factor-binding protein (Homo sapiens, UniProt P24387+Q13324); test: Dose Response confirmation of uHTS hits for small molecule antagonists of the CRF-binding protein and CRF-R2 receptor complex.; assay type: functional; settings: read-out: IC50_Mean
T5 sequence (Q13324 whole entry): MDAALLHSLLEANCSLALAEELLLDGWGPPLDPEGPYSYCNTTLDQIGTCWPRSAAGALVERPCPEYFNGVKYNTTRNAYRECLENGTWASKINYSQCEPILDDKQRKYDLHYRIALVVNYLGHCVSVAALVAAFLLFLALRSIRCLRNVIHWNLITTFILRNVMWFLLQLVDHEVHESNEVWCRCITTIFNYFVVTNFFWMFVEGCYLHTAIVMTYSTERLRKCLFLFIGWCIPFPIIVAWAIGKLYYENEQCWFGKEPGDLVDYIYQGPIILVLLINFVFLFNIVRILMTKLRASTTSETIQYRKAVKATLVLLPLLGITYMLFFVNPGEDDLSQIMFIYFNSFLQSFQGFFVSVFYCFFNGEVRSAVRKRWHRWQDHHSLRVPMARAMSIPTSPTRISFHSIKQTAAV
T5 sequence (P24387 whole entry): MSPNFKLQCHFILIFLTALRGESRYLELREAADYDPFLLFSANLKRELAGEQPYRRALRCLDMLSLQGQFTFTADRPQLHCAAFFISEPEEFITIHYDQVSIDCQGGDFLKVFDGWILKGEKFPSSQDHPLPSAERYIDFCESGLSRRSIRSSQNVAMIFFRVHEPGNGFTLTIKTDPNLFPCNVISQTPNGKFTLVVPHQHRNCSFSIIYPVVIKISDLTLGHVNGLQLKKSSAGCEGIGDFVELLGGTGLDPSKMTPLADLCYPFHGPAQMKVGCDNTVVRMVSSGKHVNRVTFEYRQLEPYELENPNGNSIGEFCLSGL

[16] = target: T5, Corticotropin-releasing factor receptor 2/Corticotropin-releasing factor-binding protein; test: activators of CRF receptor 2 with binding protein – uHTS hits, confirmation (AID 602473); assay type: functional; settings: read-out: EC50_Mean

Cytochrome P450 3A4, sequence (P08684 whole entry): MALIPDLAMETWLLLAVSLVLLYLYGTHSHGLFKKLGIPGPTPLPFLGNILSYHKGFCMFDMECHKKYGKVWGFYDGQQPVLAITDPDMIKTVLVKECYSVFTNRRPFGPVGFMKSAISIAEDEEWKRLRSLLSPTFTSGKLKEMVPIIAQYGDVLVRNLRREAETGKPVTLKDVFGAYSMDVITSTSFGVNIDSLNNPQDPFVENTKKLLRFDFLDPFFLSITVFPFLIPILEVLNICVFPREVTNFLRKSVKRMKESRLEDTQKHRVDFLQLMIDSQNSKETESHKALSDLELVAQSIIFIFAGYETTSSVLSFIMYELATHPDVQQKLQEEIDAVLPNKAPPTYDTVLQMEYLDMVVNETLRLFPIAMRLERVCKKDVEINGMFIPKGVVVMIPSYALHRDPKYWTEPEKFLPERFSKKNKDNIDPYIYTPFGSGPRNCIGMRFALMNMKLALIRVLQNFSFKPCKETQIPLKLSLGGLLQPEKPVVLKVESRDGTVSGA
Peroxisome proliferator-activated receptor gamma/Nuclear receptor coactivator 2, sequence (P37231 whole entry): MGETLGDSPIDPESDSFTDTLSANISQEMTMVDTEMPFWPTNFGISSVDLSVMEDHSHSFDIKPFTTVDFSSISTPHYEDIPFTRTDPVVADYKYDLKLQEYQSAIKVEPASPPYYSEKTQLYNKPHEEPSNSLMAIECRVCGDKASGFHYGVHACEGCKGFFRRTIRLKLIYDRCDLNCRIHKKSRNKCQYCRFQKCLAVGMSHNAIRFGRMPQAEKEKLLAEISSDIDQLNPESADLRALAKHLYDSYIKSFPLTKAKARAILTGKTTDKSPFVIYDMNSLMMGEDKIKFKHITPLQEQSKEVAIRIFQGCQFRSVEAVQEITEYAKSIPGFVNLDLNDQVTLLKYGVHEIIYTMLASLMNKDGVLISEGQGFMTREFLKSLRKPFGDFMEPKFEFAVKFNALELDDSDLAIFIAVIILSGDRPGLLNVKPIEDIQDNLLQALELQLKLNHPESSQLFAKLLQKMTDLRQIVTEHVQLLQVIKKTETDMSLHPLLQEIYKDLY
Peroxisome proliferator-activated receptor gamma/Nuclear receptor coactivator 2, sequence (Q15596 whole entry, further chain): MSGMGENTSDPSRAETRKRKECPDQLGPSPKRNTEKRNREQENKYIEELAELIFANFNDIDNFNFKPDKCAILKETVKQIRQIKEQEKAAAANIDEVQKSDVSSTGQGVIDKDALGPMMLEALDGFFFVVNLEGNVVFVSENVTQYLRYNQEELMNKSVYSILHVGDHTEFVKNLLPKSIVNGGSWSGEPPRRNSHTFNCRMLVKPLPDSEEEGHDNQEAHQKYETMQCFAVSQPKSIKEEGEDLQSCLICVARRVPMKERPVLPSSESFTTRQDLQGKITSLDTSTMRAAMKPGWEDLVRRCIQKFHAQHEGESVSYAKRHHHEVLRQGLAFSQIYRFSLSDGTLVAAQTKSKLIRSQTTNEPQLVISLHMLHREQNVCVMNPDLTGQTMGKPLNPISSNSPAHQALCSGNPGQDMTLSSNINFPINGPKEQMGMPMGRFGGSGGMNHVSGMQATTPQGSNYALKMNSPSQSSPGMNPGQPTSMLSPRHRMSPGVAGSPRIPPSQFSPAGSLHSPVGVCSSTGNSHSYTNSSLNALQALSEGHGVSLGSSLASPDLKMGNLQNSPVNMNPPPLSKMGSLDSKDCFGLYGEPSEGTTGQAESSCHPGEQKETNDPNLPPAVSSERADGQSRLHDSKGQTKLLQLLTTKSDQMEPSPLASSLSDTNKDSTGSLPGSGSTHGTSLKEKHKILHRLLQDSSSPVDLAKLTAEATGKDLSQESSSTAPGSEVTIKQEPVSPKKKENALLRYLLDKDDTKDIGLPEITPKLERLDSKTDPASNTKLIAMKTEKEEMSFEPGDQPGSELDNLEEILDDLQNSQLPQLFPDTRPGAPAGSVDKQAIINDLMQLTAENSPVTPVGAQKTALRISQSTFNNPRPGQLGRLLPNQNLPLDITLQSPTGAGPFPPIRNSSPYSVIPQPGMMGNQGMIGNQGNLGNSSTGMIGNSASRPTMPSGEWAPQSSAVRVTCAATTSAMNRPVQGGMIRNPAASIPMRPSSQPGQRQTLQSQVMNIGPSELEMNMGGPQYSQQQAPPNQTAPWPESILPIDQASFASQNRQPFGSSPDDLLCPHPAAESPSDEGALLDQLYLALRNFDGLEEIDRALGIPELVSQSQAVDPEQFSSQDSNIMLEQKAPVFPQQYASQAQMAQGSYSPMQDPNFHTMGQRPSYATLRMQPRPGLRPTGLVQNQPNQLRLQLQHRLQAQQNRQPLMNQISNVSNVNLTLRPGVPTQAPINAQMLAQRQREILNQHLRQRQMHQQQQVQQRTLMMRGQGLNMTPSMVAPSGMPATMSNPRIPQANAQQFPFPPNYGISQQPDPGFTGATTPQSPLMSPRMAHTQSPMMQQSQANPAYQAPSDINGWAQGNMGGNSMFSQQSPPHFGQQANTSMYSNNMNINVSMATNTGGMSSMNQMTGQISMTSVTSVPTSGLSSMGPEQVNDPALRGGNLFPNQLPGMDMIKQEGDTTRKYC
Peroxisome proliferator-activated receptor gamma/Nuclear receptor coactivator 3, sequence (P37231 whole entry): as the sequence (P37231 whole entry) above
Peroxisome proliferator-activated receptor gamma/Nuclear receptor coactivator 3, sequence (Q9Y6Q9 whole entry, further chain): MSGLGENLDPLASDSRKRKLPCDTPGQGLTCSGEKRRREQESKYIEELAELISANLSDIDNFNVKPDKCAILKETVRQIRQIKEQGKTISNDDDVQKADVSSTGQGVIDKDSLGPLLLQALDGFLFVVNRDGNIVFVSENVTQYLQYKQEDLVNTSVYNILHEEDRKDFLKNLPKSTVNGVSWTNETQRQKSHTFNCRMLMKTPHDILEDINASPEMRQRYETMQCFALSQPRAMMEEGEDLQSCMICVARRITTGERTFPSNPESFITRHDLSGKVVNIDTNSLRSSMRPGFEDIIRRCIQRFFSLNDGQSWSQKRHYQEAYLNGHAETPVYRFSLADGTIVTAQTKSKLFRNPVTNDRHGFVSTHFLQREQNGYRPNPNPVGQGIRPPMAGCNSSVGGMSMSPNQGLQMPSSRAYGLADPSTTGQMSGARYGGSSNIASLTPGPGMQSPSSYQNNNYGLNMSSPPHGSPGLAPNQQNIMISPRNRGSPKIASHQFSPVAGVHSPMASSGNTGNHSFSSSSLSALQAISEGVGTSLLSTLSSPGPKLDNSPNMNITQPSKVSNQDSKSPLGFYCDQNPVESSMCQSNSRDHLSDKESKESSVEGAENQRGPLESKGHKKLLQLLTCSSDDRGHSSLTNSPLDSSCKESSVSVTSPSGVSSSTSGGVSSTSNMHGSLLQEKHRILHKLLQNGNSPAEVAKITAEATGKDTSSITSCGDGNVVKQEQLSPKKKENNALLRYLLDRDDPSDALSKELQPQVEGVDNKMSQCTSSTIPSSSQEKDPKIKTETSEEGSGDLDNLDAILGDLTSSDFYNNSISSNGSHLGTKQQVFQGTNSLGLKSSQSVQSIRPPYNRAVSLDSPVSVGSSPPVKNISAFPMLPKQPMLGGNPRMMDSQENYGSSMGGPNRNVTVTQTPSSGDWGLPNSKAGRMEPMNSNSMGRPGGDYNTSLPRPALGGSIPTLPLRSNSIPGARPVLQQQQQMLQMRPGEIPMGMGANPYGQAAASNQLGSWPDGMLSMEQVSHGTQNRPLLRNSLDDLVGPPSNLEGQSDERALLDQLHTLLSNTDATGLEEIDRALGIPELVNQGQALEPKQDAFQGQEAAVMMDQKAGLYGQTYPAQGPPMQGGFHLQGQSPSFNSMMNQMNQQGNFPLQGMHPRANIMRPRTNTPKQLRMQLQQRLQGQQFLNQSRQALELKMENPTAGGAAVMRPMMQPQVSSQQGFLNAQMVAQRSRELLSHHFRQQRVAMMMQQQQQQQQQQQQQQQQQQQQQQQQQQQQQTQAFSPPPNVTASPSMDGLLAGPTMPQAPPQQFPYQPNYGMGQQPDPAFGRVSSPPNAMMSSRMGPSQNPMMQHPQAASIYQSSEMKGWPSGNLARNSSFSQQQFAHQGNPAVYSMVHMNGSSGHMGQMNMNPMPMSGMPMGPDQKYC
Cytochrome P450 2C9, sequence (P11712 whole entry): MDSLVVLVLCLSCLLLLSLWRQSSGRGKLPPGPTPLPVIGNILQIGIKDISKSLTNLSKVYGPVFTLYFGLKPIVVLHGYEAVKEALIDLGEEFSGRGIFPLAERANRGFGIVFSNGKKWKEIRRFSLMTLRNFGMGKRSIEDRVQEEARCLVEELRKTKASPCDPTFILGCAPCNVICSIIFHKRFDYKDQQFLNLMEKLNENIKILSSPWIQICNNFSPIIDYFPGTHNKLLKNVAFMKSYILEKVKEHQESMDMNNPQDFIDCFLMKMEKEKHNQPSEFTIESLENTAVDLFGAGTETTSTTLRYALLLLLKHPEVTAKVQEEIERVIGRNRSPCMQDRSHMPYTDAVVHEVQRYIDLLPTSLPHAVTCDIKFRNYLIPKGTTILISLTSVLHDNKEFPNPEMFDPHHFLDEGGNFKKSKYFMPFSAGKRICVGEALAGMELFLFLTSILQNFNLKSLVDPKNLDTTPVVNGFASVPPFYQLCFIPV

With `CCN(CC(=O)Nc1cc(Cl)ccc1C)C(=O)c1ccc(=O)n(Cc2ccccc2)n1` the AC50 [1] was 4.27 µM (active), the AC50 [2] was 3.23 µM (active) and the AC50 [3] was 5.05 µM (active). For the same compound, the AC50 [4] was 9.4 µM (active).

For `Cc1ccc(C(=O)NCC(=O)NCCCc2ccccc2)cc1`, the IC50 [5] was 16.6 µM (active).

For `CCOC(=O)c1c(-c2ccc(C)cc2)csc1NC(=O)CCN1CCOCC1`, the EC50 (Streptokinase A) was 65.4 µM (active), the IC50 (Prothrombin) was > 50 µM (not active) and the EC50 (Streptococcus) was > 150 µM (not active).

In the case of `Cc1cccc2cc(CN(Cc3ccc4c(c3)OCO4)Cc3nnnn3C3CCCC3)c(=O)[nH]c12`, the EC50 [6] is reported as > 79.4 µM (not active), the EC50 [7] is reported as > 79.4 µM (not active) and the EC50 [8] is reported as > 79.4 µM (not active).

For `C[C@@]12CC[C@@H]3[C@H](CCC4=CC(=O)CC[C@]43C)[C@@H]1CC[C@@H]2C(=O)Cn1cnc2c(S)ncnc21`, the AC50 (Cytochrome P450 3A4) was “inconclusive”.

For `O=C(Nc1cnccn1)c1cccc(C(F)(F)F)c1`, the EC50 [6] was > 79.4 µM (not active), the EC50 [7] was > 79.4 µM (not active) and the EC50 [8] was > 79.4 µM (not active).

For `CC(NC(=O)c1cc(S(=O)(=O)N(C)C)ccc1N1CCCC1)C1CC2CCC1C2` (centres undefined), the AC50 [1] was 2.74 µM (active), the AC50 [2] was 4.03 µM (active) and the AC50 [3] was 4.89 µM (active). For the same compound, the AC50 [4] was 7.68 µM (active).

For `CCOc1ccc(OCC)c(NC(=O)C2CCCN(S(=O)(=O)c3c[nH]cn3)C2)c1` (centres undefined), the IC50 (Prothrombin) was > 50 µM (not active).

With `Cc1nonc1NC(=O)CSc1ccc(-c2ccccc2)nn1` the IC50 [5] was 14.5 µM (active).

In the case of `Cc1ccc(NCC(O)C(O)C(O)CO)c(N=Nc2ccccc2)c1C` (centres undefined), the IC50 (Prothrombin) is reported as > 50 µM (not active).

With `CC(=O)OCC(=O)[C@]12OC(C)(C)O[C@@H]1C[C@H]1[C@H]3CC=C4C[C@@H](O)CC[C@]4(C)[C@H]3CC[C@]12C` the AC50 (Cytochrome P450 2C9) was 7.94 µM (inconclusive) and the AC50 (Cytochrome P450 3A4) was “inconclusive”.

With `CCN=C(S)NNC(=O)c1ccccn1` the IC50 [9] was > 20 µM (inactive) and the IC50 (Nonstructural protein 1) was 1.55 µM (active).

With `Cc1ccc(-n2c(C)nc3c(cnn3-c3ccc(F)cc3)c2=O)cc1C` the AC50 (Cytochrome P450 2D6) was 15.8 µM (inconclusive), the AC50 (Cytochrome P450 2C9) was 15.8 µM (inconclusive) and the AC50 (Cytochrome P450 3A4) was “inconclusive”.

For `CC(C)NC(=O)N1CCC2(CC1)CCN(C(=O)c1cccc(F)c1)CC2`, the AC50 (Cytochrome P450 3A4) was “inconclusive”.

For `COC(=O)c1nnc(NC(=O)c2ccc(Br)cc2)[nH]1`, the IC50 (Prothrombin) was 0.0137 µM (active).

With `COc1cccc(-c2cc(C(=O)N3CCCCCC3)no2)c1` the AC50 [10] was 10.3 µM (active) and the AC50 [11] was 16.7 µM (active).

With `CN1CC(c2ccccc2)C2(COc3ccccc3C2=O)C12C(=O)Nc1ccccc12` (centres undefined) the AC50 [1] was 2.66 µM (active), the AC50 [2] was 3.46 µM (active) and the AC50 [3] was 4.14 µM (active). For the same compound, the AC50 [4] was 5.51 µM (active) and the AC50 (Cytochrome P450 2D6) was 20 µM (inconclusive).

In the case of `CC(=O)CCc1ccc(OC(=O)c2cccnc2)cc1`, the EC50 [6] is reported as > 79.4 µM (not active), the EC50 [7] is reported as > 79.4 µM (not active) and the EC50 [8] is reported as > 79.4 µM (not active).

With `COc1ccc(C(=O)Nc2cc(C)c3c(=O)oc4ccccc4c3n2)cc1` the EC50 [6] was 82.8 µM (not active), the EC50 [7] was > 79.4 µM (not active) and the EC50 [8] was > 79.4 µM (not active).

In the case of `CCCCN(CCCC)CCC(O)c1cc2c(Cl)cc(Cl)cc2c2cc(C(F)(F)F)ccc12` (centres undefined) [HALOFANTRINE HYDROCHLORIDE], the CC50 [12] is reported as > 40 µM (active), the AC50 [13] is reported as 6.51 µM (active) and the IC50 [9] is reported as > 20 µM (inactive). For the same compound, the AC50 [14] was 7.27 µM (active) and the AC50 (Cytochrome P450 1A2) was 20 µM (inconclusive).

For `C=CCc1ccc(O)c(-c2ccc(O)c(CC=C)c2)c1` [HONOKIOL], the IC50 [5] was 12 µM (active).

For `CC1(C)C(/C=C/C=C/C=C/C=C2\N(CCCCS(=O)(=O)O)c3ccc4ccccc4c3C2(C)C)=[N+](CCCCS(=O)(=O)[O-])c2ccc3ccccc3c21` [INDOCYANINE GREEN], the IC50 (Large T antigen) was 2.1 µM (active), the IC50 (Nonstructural protein 1) was 2.7 µM (active) and the IC50 [15] was > 47.1 µM (inactive). The EC50 [16] was > 53 µM (inactive).
